# Paper PMC7062746, “X-ray Crystallography and Electron Paramagnetic Resonance Spectroscopy Reveal Active Site Rearrangement of Cold-Adapted Inorganic Pyrophosphatase” (Scientific Reports, 2020)
# Biological target: T1, Sh-PPase (Mn-Sh-PPase; Mg-Sh-PPase) (Shewanella sp. AS-11, UniProt L8AXY8)
# T1 construct: gene ppia; recombinant full-length (no tag stated), expressed in E. coli BL21 (DE3); ammonium sulphate fractionation, anion exchange, gel filtration; family II PPases are homodimers
# T1 sequence (L8AXY8 2-308): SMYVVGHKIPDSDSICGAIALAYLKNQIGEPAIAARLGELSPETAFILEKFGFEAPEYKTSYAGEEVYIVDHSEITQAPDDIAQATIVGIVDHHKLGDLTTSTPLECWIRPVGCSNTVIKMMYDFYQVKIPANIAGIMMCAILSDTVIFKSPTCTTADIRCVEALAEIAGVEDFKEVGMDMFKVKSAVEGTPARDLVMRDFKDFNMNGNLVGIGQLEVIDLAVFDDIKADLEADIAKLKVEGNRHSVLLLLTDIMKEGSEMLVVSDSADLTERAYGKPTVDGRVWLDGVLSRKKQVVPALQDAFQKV
# Assay: CW X-band EPR of the di-Mn centre
# Type: binding
# Details: Mn-activated enzyme, pH 7.5, frozen solution
smiles,measurement,setting,value
"O=P(O)(O)CP(=O)(O)O [PCP, methylendiphosphonic acid]",CW X-band EPR of the di-Mn centre,"substrate analogue, di-Mn centre signal lost on binding (inferred binding)",binding of PCP induced the decomposition of the di-Mn centre
O=S(=O)(O)O [sulphate],CW X-band EPR of the di-Mn centre,"added as ammonium sulphate, substrate binding site",sulphate ion bound correctly to the substrate binding site
